Key:
EGFR L858R = EGFR L858R (Homo sapiens (Human), UniProt P00533, L858R); test: Biochemical EGFR inhibition assay, EGFR L858R; details: Caliper mobility shift; 1.0 mM ATP or ATP Km; read-out: Enz EGFR_L858R IC50
EGFR (d746-750) = EGFR (d746-750) (Homo sapiens (Human), UniProt P00533, DEL746-750); test: Biochemical EGFR inhibition assay, EGFR (d746-750); details: Caliper mobility shift; 1.0 mM ATP or ATP Km; read-out: Enz EGFR_Exon19-del746-750 IC50
[1] = biological target: pEGFR (Tyr1068) in PC-9 cells (Ex19Del) (Homo sapiens (Human), UniProt P00533, DEL746-750); test: PC-9 pEGFR AlphaLISA assay; assay type: cell-based; details: 4 hours incubation, p-EGFR (Tyr1068) AlphaLISA, read-out: Ext pEGFR_PC-9 Ex19Del IC50
Sequence of pEGFR (Tyr1068) in PC-9 cells (Ex19Del) (P00533 other isoform, or with tags, fused parts or gaps del 746-750): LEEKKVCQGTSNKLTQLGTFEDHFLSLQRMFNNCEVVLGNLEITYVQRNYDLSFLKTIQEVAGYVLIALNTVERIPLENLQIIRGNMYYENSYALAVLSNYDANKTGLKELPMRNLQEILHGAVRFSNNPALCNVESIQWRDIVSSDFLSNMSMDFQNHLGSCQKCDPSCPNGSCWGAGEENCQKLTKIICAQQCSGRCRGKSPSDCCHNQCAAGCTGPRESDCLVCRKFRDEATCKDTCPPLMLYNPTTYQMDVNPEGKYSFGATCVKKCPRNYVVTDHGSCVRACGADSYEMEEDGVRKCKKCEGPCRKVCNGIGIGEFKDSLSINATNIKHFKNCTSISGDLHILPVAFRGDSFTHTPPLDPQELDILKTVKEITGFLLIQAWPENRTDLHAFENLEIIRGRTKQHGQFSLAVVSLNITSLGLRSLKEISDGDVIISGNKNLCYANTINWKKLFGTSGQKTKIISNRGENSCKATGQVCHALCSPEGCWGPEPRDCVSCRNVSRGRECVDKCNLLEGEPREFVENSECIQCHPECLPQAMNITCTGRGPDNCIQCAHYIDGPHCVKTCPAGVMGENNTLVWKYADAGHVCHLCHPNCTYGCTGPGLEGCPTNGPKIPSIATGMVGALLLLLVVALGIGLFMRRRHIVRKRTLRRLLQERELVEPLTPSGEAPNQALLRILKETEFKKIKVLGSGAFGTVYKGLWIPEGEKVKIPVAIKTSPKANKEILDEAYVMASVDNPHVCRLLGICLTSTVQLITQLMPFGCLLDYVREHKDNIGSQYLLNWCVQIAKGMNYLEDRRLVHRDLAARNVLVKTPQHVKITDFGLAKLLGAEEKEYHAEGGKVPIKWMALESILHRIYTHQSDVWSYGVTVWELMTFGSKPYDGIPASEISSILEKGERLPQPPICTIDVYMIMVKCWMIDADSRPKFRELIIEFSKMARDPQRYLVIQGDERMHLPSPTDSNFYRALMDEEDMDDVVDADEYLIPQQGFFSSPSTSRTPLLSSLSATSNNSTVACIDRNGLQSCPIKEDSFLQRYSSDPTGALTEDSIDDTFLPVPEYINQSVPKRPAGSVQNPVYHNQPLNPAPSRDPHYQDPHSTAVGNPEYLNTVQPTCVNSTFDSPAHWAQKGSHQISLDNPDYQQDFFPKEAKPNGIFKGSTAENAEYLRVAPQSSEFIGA
Method in brief: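 PC-9 cells seeded overnight in phenol-free DMEM with 10% FBS, then treated 4 h at 37°C with a 10-point, 4-fold compound series. Lysates assayed for pEGFR Tyr1068 by AlphaLISA SureFire; IC50 from % inhibition vs log concentration.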

Sequence of EGFR (d746-750) (P00533 other isoform, or with tags, fused parts or gaps del 1-694/del 746-750 limits assumed): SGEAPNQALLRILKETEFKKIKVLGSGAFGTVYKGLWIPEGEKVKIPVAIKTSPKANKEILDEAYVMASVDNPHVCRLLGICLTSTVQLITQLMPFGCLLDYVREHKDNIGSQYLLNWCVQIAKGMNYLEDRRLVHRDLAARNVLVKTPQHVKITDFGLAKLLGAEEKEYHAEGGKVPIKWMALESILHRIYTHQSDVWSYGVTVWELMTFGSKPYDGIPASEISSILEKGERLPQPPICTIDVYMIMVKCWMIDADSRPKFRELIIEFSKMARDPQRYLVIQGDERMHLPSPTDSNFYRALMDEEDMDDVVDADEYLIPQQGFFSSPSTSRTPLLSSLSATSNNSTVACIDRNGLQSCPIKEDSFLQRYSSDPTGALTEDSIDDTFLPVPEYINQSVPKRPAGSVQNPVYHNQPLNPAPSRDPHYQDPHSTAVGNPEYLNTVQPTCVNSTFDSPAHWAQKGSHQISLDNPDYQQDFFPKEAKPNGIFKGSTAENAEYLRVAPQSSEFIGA
Sequence of EGFR L858R (P00533 25-1210 L858R): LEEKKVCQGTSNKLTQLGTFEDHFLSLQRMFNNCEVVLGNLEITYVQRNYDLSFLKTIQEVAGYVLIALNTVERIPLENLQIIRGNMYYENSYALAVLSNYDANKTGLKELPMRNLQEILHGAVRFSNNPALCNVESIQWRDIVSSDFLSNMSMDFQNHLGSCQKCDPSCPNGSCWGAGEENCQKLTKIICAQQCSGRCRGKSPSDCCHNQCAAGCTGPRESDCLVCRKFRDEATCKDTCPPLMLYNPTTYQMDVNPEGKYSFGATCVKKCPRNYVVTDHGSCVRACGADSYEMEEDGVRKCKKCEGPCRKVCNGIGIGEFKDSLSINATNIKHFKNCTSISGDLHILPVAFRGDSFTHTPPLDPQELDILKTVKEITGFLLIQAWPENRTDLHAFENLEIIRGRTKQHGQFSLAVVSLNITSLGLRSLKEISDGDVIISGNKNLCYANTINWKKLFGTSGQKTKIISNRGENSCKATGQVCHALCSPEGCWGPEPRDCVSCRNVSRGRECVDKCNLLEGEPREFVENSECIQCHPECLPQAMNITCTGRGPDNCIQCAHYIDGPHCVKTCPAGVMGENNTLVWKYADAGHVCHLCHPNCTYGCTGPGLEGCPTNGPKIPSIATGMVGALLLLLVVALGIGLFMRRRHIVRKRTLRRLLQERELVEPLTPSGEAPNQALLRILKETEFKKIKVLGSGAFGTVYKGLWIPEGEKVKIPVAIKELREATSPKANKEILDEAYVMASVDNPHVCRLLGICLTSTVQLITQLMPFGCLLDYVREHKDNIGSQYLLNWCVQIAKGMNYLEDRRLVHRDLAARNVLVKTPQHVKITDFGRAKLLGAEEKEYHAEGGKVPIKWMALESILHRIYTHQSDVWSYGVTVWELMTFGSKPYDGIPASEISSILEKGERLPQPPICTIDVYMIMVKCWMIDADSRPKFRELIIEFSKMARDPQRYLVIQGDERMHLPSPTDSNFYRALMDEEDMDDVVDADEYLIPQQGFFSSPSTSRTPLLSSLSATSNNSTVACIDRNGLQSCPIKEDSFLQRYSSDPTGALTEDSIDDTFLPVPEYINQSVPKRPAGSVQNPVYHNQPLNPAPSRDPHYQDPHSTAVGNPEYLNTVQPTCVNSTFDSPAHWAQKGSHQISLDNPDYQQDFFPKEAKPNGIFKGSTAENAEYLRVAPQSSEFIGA

IC50 (EGFR L858R) [nM] | IC50 (EGFR (d746-750)) [nM] | IC50 [1] [nM] | SMILES
4.8 | 2.4 | 2.5 | COc1cc2ncnc(-c3cn(C)nc3-c3ccccc3)c2cc1OC(=O)N1[C@H](C)COC[C@@H]1C [Example 63, 7-methoxy-4-(1-methyl-3-phenyl-1H-pyrazol-4-yl)quinazolin-6-yl (3S,5R)-3,5-dimethylmorpholine-4-carboxylate]
3.2 | 1.8 | 2.3 | COc1cc2ncnc(-c3cn(CCO)nc3-c3ccccc3)c2cc1NC(=O)C12CC(C1)C2 [Example 265, N-(4-(1-(2-hydroxyethyl)-3-phenyl-1H-pyrazol-4-yl)-7-methoxyquinazolin-6-yl)bicyclo[1.1.1]pentane-1-carboxamide]
5.4 | 1.7 | 3.5 | COc1cc2ncnc(-c3cn(C)nc3-c3ccccc3)c2nc1NC(=O)[C@@]1(C)CCCO1 [Example 363, (R)-N-(7-methoxy-4-(1-methyl-3-phenyl-1H-pyrazol-4-yl)pyrido[3,2-d]pyrimidin-6-yl)-2-methyltetrahydrofuran-2-carboxamide]
1 | 0.7 | 0.8 | COc1cc2ncnc(-c3cn(C)nc3-c3ccccc3)c2cc1NC(=O)c1nc(C)ccc1F [Example 330, 3-fluoro-N-(7-methoxy-4-(1-methyl-3-phenyl-1H-pyrazol-4-yl)quinazolin-6-yl)-6-methylpicolinamide]
8.2 | 1.9 | 8.7 | COc1cc2ncnc(-c3cn(C)nc3-c3ccccc3)c2cc1-c1ccc(OC)c2n[nH]cc12 [Example 151, 7-methoxy-6-(7-methoxy-2H-indazol-4-yl)-4-(1-methyl-3-phenyl-1H-pyrazol-4-yl)quinazoline]
11.1 | 2.4 | 2.7 | CN(C)C12CC(C(=O)Nc3nc4c(-c5cn(C)nc5-c5ccccc5F)ncnc4cc3OC3CC3)(C1)C2 [Example 469, N-{7-cyclopropoxy-4-[3-(2-fluorophenyl)-1-methyl-1H-pyrazol-4-yl]pyrido[3,2-d]pyrimidin-6-yl}-3-(dimethylamino) bicyclo[1.1.1]pentane-1-carboxamide]
3 | 1.5 | 3.8 | COc1cc2ncnc(-c3cn(C)nc3-c3ccccc3F)c2cc1N1CCOCC1 [Example 159, 4-(4-(3-(2-fluorophenyl)-1-methyl-1H-pyrazol-4-yl)-7-methoxyquinazolin-6-yl)morpholine]
3.5 | 1.6 | 4.3 | COc1cc2ncnc(-c3cn(C)nc3-c3ccccc3)c2cc1NC(=O)[C@@H]1C[C@H]1C(F)(F)F [Example 286, (1R,2R)—N-(7-methoxy-4-(1-methyl-3-phenyl-1H-pyrazol-4-yl)quinazolin-6-yl)-2-(trifluoromethyl)cyclopropane-1-carboxamide]
4.3 | 1.9 | 4.9 | COc1cc2ncnc(-c3cn(C)nc3-c3ccccc3)c2cc1O[C@H]1CCN(C)C[C@@H]1F [Example 2, 6-(((3S,4S)-3-fluoro-1-methylpiperidin-4-yl)oxy)-7-methoxy-4-(1-methyl-3-phenyl-1H-pyrazol-4-yl)quinazoline]
1.1 | 0.3 | 1.1 | CCOc1cc2ncnc(-c3cn(C)nc3-c3ccc(F)cc3)c2nc1NC(=O)[C@]12COC[C@H]1C2 (single isomer, unassigned) [Example 384, (1S,5S)—N-(7-ethoxy-4-(3-(4-fluorophenyl)-1-methyl-1H-pyrazol-4-yl)pyrido[3,2-d]pyrimidin-6-yl)-3-oxabicyclo[3.1.0]hexane-1-carboxamide or (1R,5R)—N-(7-ethoxy-4-(3-(4-fluorophenyl)-1-methyl-1H-pyrazol-4-yl)pyrido[3,2-d]pyrimidin-6-yl)-3-oxabicyclo[3.1.0]hexane-1-carboxamide]
3.9 | 2.2 | 3.6 | COc1cc2ncnc(-c3cn(C)nc3-c3ccccc3)c2cc1-c1ccc2c(c1)CN(C)C2=O [Example 137, 5-(7-methoxy-4-(1-methyl-3-phenyl-1H-pyrazol-4-yl)quinazolin-6-yl)-2-methylisoindolin-1-one]
3.2 | 2.3 | 4 | COc1cc2ncnc(-c3cn(C)nc3-c3ccccc3)c2cc1NC(=O)N1CCN(C)[C@@H]2C[C@@H]21 (stereo in doubt) [Example 186, N-[7-methoxy-4-(1-methyl-3-phenyl-1H-pyrazol-4-yl)quinazolin-6-yl]-5-methyl-2,5-diazabicyclo[4.1.0]heptane-2-carboxamide]
3.1 | 1.7 | 4.6 | COc1cc2ncnc(-c3cn(C)nc3-c3ccccc3)c2cc1NC(=O)c1ccncc1 [Example 351, N-(7-methoxy-4-(1-methyl-3-phenyl-1H-pyrazol-4-yl)quinazolin-6-yl)isonicotinamide]
3.1 | 1.8 | 4.3 | COc1cc2ncnc(-c3cn(C)nc3-c3ccccc3)c2cc1O[C@@H]1CCOC[C@H]1F [Example 18, 6-(((3R,4R)-3-fluorotetrahydro-2H-pyran-4-yl)oxy)-7-methoxy-4-(1-methyl-3-phenyl-1H-pyrazol-4-yl)quinazoline]
1.9 | 1.3 | 1.9 | COc1cc2ncnc(-c3cn(CC(F)F)nc3-c3ccccc3)c2cc1NC(=O)[C@]12COC[C@H]1C2 [Example 275, (1S,5S)—N-(4-(1-(2,2-difluoroethyl)-3-phenyl-1H-pyrazol-4-yl)-7-methoxyquinazolin-6-yl)-3-oxabicyclo[3.1.0]hexane-1-carboxamide]
9 | 3.6 | 13.8 | COc1cc2ncnc(-c3cn(C)nc3-c3ccccc3)c2cc1N1CC[C@@H](F)[C@H](O)C1 (single isomer, unassigned) [Example 173, (3R,4R)-4-fluoro-1-(7-methoxy-4-(1-methyl-3-phenyl-1H-pyrazol-4-yl)quinazolin-6-yl) piperidin-3-ol or (3S,4S)-4-fluoro-1-(7-methoxy-4-(1-methyl-3-phenyl-1H-pyrazol-4-yl)quinazolin-6-yl) piperidin-3-ol]
1.6 | 0.7 | 1.5 | COc1cc2ncnc(-c3c[nH]nc3-c3ccccc3)c2nc1NC(=O)C1(C(F)(F)F)CC1 [Example 372, N-(7-methoxy-4-(3-phenyl-1H-pyrazol-4-yl)pyrido[3,2-d]pyrimidin-6-yl)-1-(trifluoromethyl)cyclopropane-1-carboxamide]
3 | 2 | 4.6 | COc1cc2ncnc(-c3cn(C)nc3-c3ccccc3)c2cc1O[C@@H]1CN(C)C[C@@H]1F [Example 5, 6-(((3R,4S)-4-fluoro-1-methylpyrrolidin-3-yl)oxy)-7-methoxy-4-(1-methyl-3-phenyl-1H-pyrazol-4-yl)quinazoline]
5.7 | 1.5 | 3.2 | CN1C[C@H]2C[C@@]2(C(=O)Nc2nc3c(-c4cn(C)nc4-c4ccccc4)ncnc3cc2OC2CC2)C1 [Example 460, (1S,5S)—N-[7-cyclopropoxy-4-(1-methyl-3-phenyl-1H-pyrazol-4-yl)pyrido[3,2-d]pyrimidin-6-yl]-3-methyl-3-azabicyclo[3.1.0]hexane-1-carboxamide]
1.6 | 1.9 | 3.3 | COc1cc2ncnc(-c3cn(C)nc3-c3ccccc3)c2cc1C1=CCN(C)C1 [Example 131, 7-methoxy-6-(1-methyl-2,5-dihydro-1H-pyrrol-3-yl)-4-(1-methyl-3-phenyl-1H-pyrazol-4-yl)quinazoline]
8.7 | 4.7 | 18.7 | COc1cc2ncnc(-c3cn(C)nc3-c3ccccc3)c2cc1NC(=O)[C@@H]1CCN(C)C[C@H]1F [Example 284, (3S,4S)-3-fluoro-N-(7-methoxy-4-(1-methyl-3-phenyl-1H-pyrazol-4-yl)quinazolin-6-yl)-1-methylpiperidine-4-carboxamide]
3.1 | 1.3 | 3.8 | COc1cc2ncnc(-c3cn(C)nc3-c3ccc(F)cc3)c2nc1NC(=O)C12CC(N(C)C)(C1)C2 [Example 402, 3-(dimethylamino)-N-(4-(3-(4-fluorophenyl)-1-methyl-1H-pyrazol-4-yl)-7-methoxypyrido[3,2-d]pyrimidin-6-yl)bicyclo[1.1.1]pentane-1-carboxamide]
12.3 | 2.7 | 6.3 | COc1cc2ncnc(-c3cn(C)nc3-c3ccccc3)c2nc1O[C@H](C)c1nnc(C)s1 (single isomer, unassigned) [Example 52, (R)-2-(1-((7-methoxy-4-(1-methyl-3-phenyl-1H-pyrazol-4-yl)pyrido[3,2-d]pyrimidin-6-yl)oxy)ethyl)-5-methyl-1,3,4-thiadiazole or (S)-2-(1-((7-methoxy-4-(1-methyl-3-phenyl-1H-pyrazol-4-yl)pyrido[3,2-d]pyrimidin-6-yl)oxy)ethyl)-5-methyl-1,3,4-thiadiazole]
1.4 | 0.7 | 1.7 | COc1cc2ncnc(-c3cn(C)nc3-c3ccccc3)c2cc1NC(=O)c1ccnc(C)c1 [Example 194, N-(7-methoxy-4-(1-methyl-3-phenyl-1H-pyrazol-4-yl)quinazolin-6-yl)-2-methylisonicotinamide]

From patent publication US20250236608A1, “EGFR INHIBITORS” (Blueprint Medicines Corporation, priority 2022, published 2025)
